Measurements: article PMC4849045, “Hepatoprotective Limonoids from Andiroba (Carapa guianensis)” (International Journal of Molecular Sciences, 2016)
Where two headings read alike, the source gives them in different places.

Experiments:
[1] = tested on: LPS-activated NO production in mouse peritoneal macrophages; assay: LPS-induced NO production in mouse peritoneal macrophages; type: cell-based; conditions: Peritoneal macrophage; for inhibition at 3 µM / inhibition at 10 µM / inhibition at 30 µM / inhibition at 100 µM: read-out: Inhibition (%) of LPS-activated NO production; for IC50: read-out: IC50, inhibition of LPS-activated NO production
Experimental: The effects of limonoids (1–17) on NO production were examined to provide an estimation of macrophage activation levels in LPS-treated mouse peritoneal macrophages.
Assay for NO production in TGC-induced mouse peritoneal macrophages was performed as described previously. N^G-Monomethyl-L-arginine (L-NMMA) and caffeic acid phenethyl ester (CAPE) were used as reference compounds [33, 36].

[2] = Cell viability of LPS-treated mouse peritoneal macrophages (MTT assay); type: cell-based
L929 cells = assay: TNF-α-induced cytotoxicity in L929 cells (MTT assay); type: cell-based; conditions: Mus musculus; for inhibition at 1 µM / inhibition at 3 µM / inhibition at 10 µM / inhibition at 30 µM: read-out: Inhibition (%) of TNF-α-induced cytotoxicity; for IC50: read-out: IC50, inhibition of TNF-α-induced decrease in cell viability
Experimental: The effects of the limonoids (1–17) on the sensitivity of hepatocytes to TNF-α were assessed by measuring TNF-α-induced decreases in the viability of L929 cells, a TNF-α-sensitive cell line, by using the MTT assay. In the absence of a test sample, the cells incubated with 1 ng/mL TNF-α for 44 h were compared with those not incubated with TNF-α.
Assay for the TNF-α-induced cytotoxicity in L929 cells was performed as described previously. Silybin was used as a reference compound [36].

[3] = tested on: primary cultured mouse hepatocytes; assay: D-GalN-induced cytotoxicity in primary cultured mouse hepatocytes (MTT assay); conditions: Hepatocyte, read-out: Inhibition (%) of D-GalN-induced cytotoxicity
Experimental: Assay for the D-GalN-induced cytotoxicity in primary cultured mouse hepatocytes was performed as described previously [33, 35, 36].

[4] = Mus musculus, 3 µM, mean ± S.E.M. (n = 4)
[5] = Mus musculus, 10 µM, mean ± S.E.M. (n = 4)
[6] = Mus musculus, 30 µM, mean ± S.E.M. (n = 4)
[7] = Mus musculus, 100 µM, mean ± S.E.M. (n = 4)
[8] = LPS-treated TGC-induced mouse peritoneal macrophages, 3 µM, mean ± S.E.M. (n = 4), read-out: cell viability (%) in MTT assay (values in parentheses) (converted)
[9] = LPS-treated TGC-induced mouse peritoneal macrophages, 10 µM, mean ± S.E.M. (n = 4), read-out: cell viability (%) in MTT assay (values in parentheses) (converted)
[10] = LPS-treated TGC-induced mouse peritoneal macrophages, 30 µM, mean ± S.E.M. (n = 4), read-out: cell viability (%) in MTT assay (values in parentheses) (converted)
[11] = LPS-treated TGC-induced mouse peritoneal macrophages, 100 µM, mean ± S.E.M. (n = 4), # = cytotoxic effects were observed, read-out: cell viability (%) in MTT assay (values in parentheses) (converted)
[12] = L929, 1 µM, 1 ng/mL TNF-α, 44 h, mean ± S.E.M. (n = 4)
[13] = L929, 3 µM, 1 ng/mL TNF-α, 44 h, mean ± S.E.M. (n = 4)
[14] = L929, 10 µM, 1 ng/mL TNF-α, 44 h, mean ± S.E.M. (n = 4)
[15] = L929, 30 µM, 1 ng/mL TNF-α, 44 h, mean ± S.E.M. (n = 4)
[16] = L929 cells, 1 ng/mL TNF-α, 44 h

| IC50 ([1]; mouse peritoneal macrophages) | SMILES | inhibition at 3 µM [1, 4] | inhibition at 10 µM [1, 5] | inhibition at 30 µM [1, 6] | inhibition at 100 µM [1, 7] | viability at 3 µM [2, 8] | viability at 10 µM [2, 9] | viability at 30 µM [2, 10] | viability at 100 µM [2, 11] | inhibition at 1 µM (L929 cells; [12]) | inhibition at 3 µM (L929 cells; [13]) | inhibition at 10 µM (L929 cells; [14]) | inhibition at 30 µM (L929 cells; [15]) | inhibition at 3 µM [3] | inhibition at 10 µM [3] | inhibition at 30 µM [3] | inhibition at 100 µM [3] | inhibition at 3 µM (L929 cells; L929, 44 h) | inhibition at 10 µM (L929 cells; L929, 44 h) | inhibition at 30 µM (L929 cells; L929, 44 h) | further results |
| --- | --- | --- | --- | --- | --- | --- | --- | --- | --- | --- | --- | --- | --- | --- | --- | --- | --- | --- | --- | --- | --- |
| 9.4 µM | CC(=O)O[C@@H]1C2C(C)(C)C(=O)C=C[C@]2(C)C2CC[C@@]3(C)[C@H](c4ccoc4)OC(=O)[C@H]4O[C@]43[C@]2(C)[C@@H]1O (stereo partly shown) [compound 5, andirolide H] | 5.8 ± 6.1% | 63.9 ± 3% | 97.2 ± 0.9% | 99.7 ± 0.5% | 99.8% | 104% | 109% | 4.9% | -6.6 ± 3.6% | -0.7 ± 1.2% | 7.6 ± 1.1% | 39.2 ± 1.7% | -6.2 ± 2.6% | -9 ± 0.5% | -9.2 ± 0.8% | -0.6 ± 0.8% |  |  |  |  |
|  | CC(=O)O[C@@H]1CC2C(C)(C)C(=O)C=C[C@]2(C)C2CC[C@]3(C)C(=CC(=O)[C@@]3(O)c3ccoc3)[C@@]21C (stereo partly drawn) [compound 9, 17β-hydroxyazadiradione] |  |  |  |  |  |  |  |  |  |  |  |  | 15.3 ± 2.3% | -4.1 ± 1.2% | -7.5 ± 1.4% | -7.5 ± 4% | 23.9 ± 3.9% | 64 ± 3.3% | 91.3 ± 8.2% | IC50 ([1]; Mus musculus): 20.3 µM; inhibition at 3 µM ([1]; Mus musculus): -10.4 ± 6.8%; inhibition at 10 µM ([1]; Mus musculus): 9.4 ± 7.1%; inhibition at 30 µM ([1]; Mus musculus): 65.1 ± 4.5%; inhibition at 100 µM ([1]; Mus musculus): 97.4 ± 0.7%; viability at 3 µM [2]: 95.4%; viability at 10 µM [2]: 94.4 ± 14.1%; viability at 30 µM [2]: 94.8%; viability at 100 µM [2]: 84.8%; inhibition at 1 µM (L929 cells; L929, 44 h): 14.1 ± 3.4%; IC50 (L929 cells; [16]): 6.9 µM |
| > 100 µM | CCC(C)C(=O)OC1C2(OC(C)=O)CC3(O)C4=CC(=O)OC(c5ccoc5)C4(C)CCC3C(C)(C2=O)C(CC(=O)OC)C1(C)C (stereo not shown) [compound 10, Carapanolide C] | 4.2 ± 8.8% | 20.8 ± 5% | 20.2 ± 4.9% | 13.2 ± 1.9% | 96% | 98.9% | 91.8% | 80% | 4.9 ± 2.1% | 14.2 ± 3.2% | 27.7 ± 4.3% | 54.5 ± 5.5% | 8 ± 4.3% | 3.4 ± 4.2% | 6.7 ± 2.1% | -7.7 ± 4.4% |  |  |  | IC50 (L929 cells; [16]): 27 µM |

| SMILES | IC50 ([1]; mouse peritoneal macrophages) | inhibition at 3 µM [1, 4] | inhibition at 10 µM [1, 5] | inhibition at 30 µM [1, 6] | inhibition at 100 µM [1, 7] | viability at 3 µM [2, 8] | viability at 10 µM [2, 9] | viability at 30 µM [2, 10] | viability at 100 µM [2, 11] | inhibition at 1 µM (L929 cells; [12]) | inhibition at 3 µM (L929 cells; [13]) | inhibition at 10 µM (L929 cells; [14]) | inhibition at 30 µM (L929 cells; [15]) | inhibition at 3 µM [3] | inhibition at 10 µM [3] | inhibition at 30 µM [3] | inhibition at 100 µM [3] | inhibition at 3 µM (L929 cells; L929, 44 h) | inhibition at 10 µM (L929 cells; L929, 44 h) | inhibition at 30 µM (L929 cells; L929, 44 h) | further results |
| --- | --- | --- | --- | --- | --- | --- | --- | --- | --- | --- | --- | --- | --- | --- | --- | --- | --- | --- | --- | --- | --- |
| CC(=O)O[C@@H]1C[C@H]2C(C)(C)C(=O)C=C[C@]2(C)[C@H]2CC[C@@]3(C)[C@H](c4ccoc4)C(=O)[C@H]4O[C@]43[C@@]21C [compound 8, epoxyazadiradione] | 8.2 µM | 10.5 ± 0.9% | 56 ± 4% | 103 ± 4% | 112.3 ± 0.7% |  |  |  |  |  |  |  |  | -3.1 ± 8.9% | -2.2 ± 2.5% | -10.8 ± 0.6% | -11.9 ± 0.3% | 13.7 ± 3.9% | 39.1 ± 6.5% | 91.5 ± 11.4% | viability at 3 µM ([2]; 3 µM, mean ± S.E.M. (n = 4), read-out: cell viability (%) in MTT assay (values in parentheses) (converted)): 99.6%; viability at 10 µM ([2]; 10 µM, mean ± S.E.M. (n = 4), read-out: cell viability (%) in MTT assay (values in parentheses) (converted)): 94.8%; viability at 30 µM ([2]; 30 µM, mean ± S.E.M. (n = 4), read-out: cell viability (%) in MTT assay (values in parentheses) (converted)): 81.9%; viability at 100 µM ([2]; 100 µM, mean ± S.E.M. (n = 4), # = cytotoxic effects were observed, read-out: cell viability (%) in MTT assay (values in parentheses) (converted)): 10%; IC50 (L929 cells; L929, 44 h): 10.2 µM |
